Seven molecules from ChEMBL document CHEMBL4145446, “Development of tacrine-bifendate conjugates with improved cholinesterase inhibitory and pro-cognitive efficacy and reduced hepatotoxicity” (Eur J Med Chem, 2018) can be followed below.

Molecules are shown by their SMILES. Activity calls are given as the source filed them. The calls are words filed in the database; no cut-off is given here.

For one data set, the target named is Acetylcholinesterase (Electrophorus electricus, UniProt O42275). In words: Inhibition of electric eel AChE using acetylthiocholine chloride as substrate preincubated for 15 mins followed by substrate addition measured every minute by Ellman's method. (Ellman's reagent forms a yellow product with free thiols.)
Acetylcholinesterase, sequence (O42275 whole entry): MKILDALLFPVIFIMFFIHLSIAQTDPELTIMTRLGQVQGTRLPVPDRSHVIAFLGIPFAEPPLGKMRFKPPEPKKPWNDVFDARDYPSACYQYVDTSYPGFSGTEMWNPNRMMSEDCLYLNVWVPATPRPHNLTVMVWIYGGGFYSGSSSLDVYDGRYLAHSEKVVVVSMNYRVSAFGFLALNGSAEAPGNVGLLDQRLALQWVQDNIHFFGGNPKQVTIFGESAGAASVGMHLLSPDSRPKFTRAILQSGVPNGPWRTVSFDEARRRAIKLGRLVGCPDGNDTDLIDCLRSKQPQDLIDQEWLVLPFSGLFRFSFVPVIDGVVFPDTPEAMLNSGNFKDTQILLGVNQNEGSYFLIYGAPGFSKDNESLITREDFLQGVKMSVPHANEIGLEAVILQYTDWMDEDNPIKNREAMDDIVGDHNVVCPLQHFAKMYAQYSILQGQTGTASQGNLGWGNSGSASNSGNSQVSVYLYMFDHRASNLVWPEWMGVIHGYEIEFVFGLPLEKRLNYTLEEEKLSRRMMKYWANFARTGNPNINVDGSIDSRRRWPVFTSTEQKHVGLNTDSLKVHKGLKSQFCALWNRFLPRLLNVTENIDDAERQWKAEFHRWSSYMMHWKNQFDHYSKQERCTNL
A further data set deals with Cholinesterase (Equus caballus, UniProt P81908). In words: Inhibition of equine serum BuChE using butyrylthiocholine chloride as substrate preincubated for 15 mins followed by substrate addition measured every minute by Ellman's method.
Cholinesterase, sequence (P81908 whole entry): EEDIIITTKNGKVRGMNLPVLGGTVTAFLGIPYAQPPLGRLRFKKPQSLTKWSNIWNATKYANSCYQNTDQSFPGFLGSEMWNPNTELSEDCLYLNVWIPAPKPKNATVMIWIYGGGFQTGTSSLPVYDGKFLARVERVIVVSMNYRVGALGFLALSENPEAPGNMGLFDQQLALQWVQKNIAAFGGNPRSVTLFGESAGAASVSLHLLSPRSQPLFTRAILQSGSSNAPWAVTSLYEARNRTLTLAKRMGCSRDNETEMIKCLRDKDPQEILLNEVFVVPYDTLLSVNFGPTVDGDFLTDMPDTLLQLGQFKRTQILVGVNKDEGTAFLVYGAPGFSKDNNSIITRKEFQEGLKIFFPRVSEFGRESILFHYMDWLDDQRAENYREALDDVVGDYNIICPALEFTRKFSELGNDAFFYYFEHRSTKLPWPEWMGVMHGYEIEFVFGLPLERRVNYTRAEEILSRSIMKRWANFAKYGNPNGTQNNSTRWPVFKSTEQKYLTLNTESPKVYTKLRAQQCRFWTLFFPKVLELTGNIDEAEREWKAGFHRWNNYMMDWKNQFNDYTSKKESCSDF
The nature of data set [1]: Cytotoxicity against human HepG2 cells assessed as inhibition of cell viability at 1 uM by MTT assay relative to control. The class given is cell-based. Conditions: read-out: INH. In general terms: Tetrazolium assays rely on reduction of a dye to a coloured formazan, in cell work by metabolically active cells.
The nature of data set [2]: Cytotoxicity against human HepG2 cells assessed as inhibition of cell viability at 10 uM by MTT assay relative to control. The class given is cell-based. The following applies: read-out: INH.
Data set [3] is described as follows: Cytotoxicity against human HepG2 cells assessed as inhibition of cell viability at 50 uM by MTT assay relative to control. The class given is cell-based. Conditions: read-out: INH.
Data set [4] is described as follows: Cytotoxicity against rat PC12 cells assessed as inhibition of cell viability at 1 uM by MTT assay relative to control. Format: cell-based, PC-12. Conditions: read-out: INH.
Data set [5] is described as follows: Cytotoxicity against rat PC12 cells assessed as inhibition of cell viability at 10 uM by MTT assay relative to control. The following applies: read-out: INH. The class given is cell-based, PC-12.
Data set [6] can be described thus: Cytotoxicity against rat PC12 cells assessed as inhibition of cell viability at 50 uM by MTT assay relative to control. Format: cell-based, PC-12. Conditions: read-out: INH.
The target of data set [7] is Acetylcholinesterase (Electrophorus electricus) (UniProt O42275). In words: Inhibition of electric eel AChE at 50 uM using acetylthiocholine chloride as substrate preincubated for 15 mins followed by substrate addition measured every minute by Ellman's method.
Acetylcholinesterase (Electrophorus electricus), sequence (O42275 24-633 limits assumed): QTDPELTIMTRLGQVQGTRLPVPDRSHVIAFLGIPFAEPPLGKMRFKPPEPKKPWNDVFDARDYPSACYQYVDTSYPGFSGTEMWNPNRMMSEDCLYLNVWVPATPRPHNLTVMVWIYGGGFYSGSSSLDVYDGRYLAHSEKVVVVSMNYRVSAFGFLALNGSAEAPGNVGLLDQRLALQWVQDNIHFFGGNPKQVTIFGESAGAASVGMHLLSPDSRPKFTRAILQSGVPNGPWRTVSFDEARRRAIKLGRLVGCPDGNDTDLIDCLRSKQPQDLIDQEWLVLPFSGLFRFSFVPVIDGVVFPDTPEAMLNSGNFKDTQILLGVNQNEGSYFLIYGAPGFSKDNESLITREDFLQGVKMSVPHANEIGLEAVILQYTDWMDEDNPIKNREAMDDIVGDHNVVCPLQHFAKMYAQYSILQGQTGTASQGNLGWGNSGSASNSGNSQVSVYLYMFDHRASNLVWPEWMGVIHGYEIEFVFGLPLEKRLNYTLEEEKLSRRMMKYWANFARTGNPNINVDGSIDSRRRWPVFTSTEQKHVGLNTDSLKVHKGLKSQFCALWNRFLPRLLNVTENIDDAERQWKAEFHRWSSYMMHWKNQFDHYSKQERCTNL
The target in data set [8] is Cholinesterase (Equus caballus) (UniProt P81908). In words: Inhibition of equine serum BuChE at 50 uM using butyrylthiocholine chloride as substrate preincubated for 15 mins followed by substrate addition measured every minute by Ellman's method.
Cholinesterase (Equus caballus), sequence (P81908 whole entry): as the sequence (P81908 whole entry) above
In data set [9] the test system is Mus musculus. In words: Hepatotoxicity in Kunming mouse assessed as histomorphological changes in liver at 106 mg/kg, ig after 48 hrs by H and E staining based assay. The class given is toxicity, organism-based. Conditions: in vivo, po.
Data set [10] relates to Mus musculus. In words: Hepatotoxicity in Kunming mouse assessed as inflammatory cell infiltration in liver at 35 mg/kg, ig cotreated with THA after 48 hrs by H and E staining based assay. Conditions: in vivo, po. Format: toxicity, organism-based.
Data set [11] has as its system Mus musculus. In words: Hepatotoxicity in Kunming mouse assessed as serum ALT level at 106 mg/kg, ig after 48 hrs by colorimetric method (reference value: 42.7 +/- 6.3 U/L). The class given is toxicity, organism-based. Conditions: in vivo, po.
For data set [12], the system named is Mus musculus. In words: Hepatotoxicity in Kunming mouse assessed as serum ASAT level at 106 mg/kg, ig after 48 hrs by colorimetric method (reference value: 101.5 +/- 22.3 U/L). The class given is toxicity, organism-based. The following applies: in vivo, po.
Data set [13] deals with Mus musculus. In words: Hepatotoxicity in Kunming mouse assessed as serum ALT level at 106 mg/kg, ig cotreated with THA after 48 hrs by colorimetric method (reference value: 42.7 +/- 6.3 U/L). The following applies: in vivo, po. Format: toxicity, organism-based.
Data set [14] has as its system Mus musculus. In words: Hepatotoxicity in Kunming mouse assessed as serum ASAT level at 106 mg/kg, ig cotreated with THA after 48 hrs by colorimetric method (reference value: 101.5 +/- 22.3 U/L). The following applies: in vivo, po. The class given is toxicity, organism-based.
The target in data set [15] is Amyloid-beta precursor protein (Homo sapiens) (UniProt P05067). In words: Inhibition of human self-induced amyloid beta (1 to 42) aggregation at 20 uM after 48 hrs by uranyl acetate staining based TEM analysis.
Amyloid-beta precursor protein (Homo sapiens), sequence (P05067 whole entry): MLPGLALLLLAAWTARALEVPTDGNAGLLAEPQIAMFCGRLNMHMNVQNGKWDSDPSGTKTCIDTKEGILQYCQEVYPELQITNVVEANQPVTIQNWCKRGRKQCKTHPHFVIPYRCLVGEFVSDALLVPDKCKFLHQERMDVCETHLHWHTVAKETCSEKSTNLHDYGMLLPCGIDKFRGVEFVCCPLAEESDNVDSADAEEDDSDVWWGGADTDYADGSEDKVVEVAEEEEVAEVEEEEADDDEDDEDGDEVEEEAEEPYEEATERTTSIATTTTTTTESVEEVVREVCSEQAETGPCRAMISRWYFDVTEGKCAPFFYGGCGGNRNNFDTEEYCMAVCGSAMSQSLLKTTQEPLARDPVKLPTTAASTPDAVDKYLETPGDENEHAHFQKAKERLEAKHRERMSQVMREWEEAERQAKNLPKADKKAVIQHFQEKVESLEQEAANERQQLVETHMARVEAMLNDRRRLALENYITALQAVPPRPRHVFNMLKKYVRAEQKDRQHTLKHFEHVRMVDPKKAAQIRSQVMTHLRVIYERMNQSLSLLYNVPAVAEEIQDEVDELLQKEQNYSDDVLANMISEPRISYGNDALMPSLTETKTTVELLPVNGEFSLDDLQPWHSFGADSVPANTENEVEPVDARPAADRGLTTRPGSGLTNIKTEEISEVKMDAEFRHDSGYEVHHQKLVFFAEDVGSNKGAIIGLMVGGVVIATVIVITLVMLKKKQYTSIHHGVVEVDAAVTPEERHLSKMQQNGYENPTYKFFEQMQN
Data set [16] addresses Acetylcholinesterase (Electrophorus electricus) (UniProt O42275). In words: Mixed-type inhibition of electric eel AChE at 25 to 100 nM using acetylthiocholine chloride as substrate preincubated for 15 mins followed by substrate addition by Lineweaver-Burk plot analysis.
Data set [17] has as its system L02. In words: Cytotoxicity against human HL7702 cells assessed as reduction in cell viability at 1 to 10 uM by MTT assay. Conditions: l02, 10 µM. The class given is cell-based.
Data set [18] deals with L02. In words: Induction of apoptosis in human HL7702 cells at 10 uM in presence of PI3K inhibitor LY294002 by FITC staining based flow cytometry relative to control. The class given is cell-based. Conditions: l02, 10 µM.
Data set [19] deals with Mus musculus. In words: Hepatotoxicity in Kunming mouse assessed as increase in serum ALT level at 106 mg/kg, ig after 48 hrs by colorimetric method relative to control. The class given is toxicity, organism-based. Conditions: in vivo, po.
The test system of data set [20] is Mus musculus. In words: Hepatotoxicity in Kunming mouse assessed as increase in serum ASAT level at 106 mg/kg, ig after 48 hrs by colorimetric method relative to control. The following applies: in vivo, po. Format: toxicity, organism-based.
The test system of data set [21] is Mus musculus. In words: Cognition enhancing effect in ICR mouse model of scopalamine-induced memory impairment assessed as improvement in target quadrant preference at 20 umol equiv/kg, po pretreated for 30 mins followed by scopalamine treatment measured on day 15 by Morris water maze test. The class given is functional, organism-based.
The subject of data set [22] is Mus musculus. In words: Effect on spatial memory performance in ICR mouse model of scopalamine-induced memory impairment assessed as total distance travelled at 20 umol equiv/kg, po pretreated for 30 mins followed by scopalamine treatment measured for 90 secs by Morris water maze test. The class given is ADME, organism-based. The following applies: 0.025 h.
The subject of data set [23] is Mus musculus. In words: Effect on spatial memory performance in ICR mouse model of scopalamine-induced memory impairment assessed as swimming speed at 20 umol equiv/kg, po pretreated for 30 mins followed by scopalamine treatment measured for 90 secs by Morris water maze test. Conditions: 0.025 h. The class given is ADME, organism-based.

Usually IC50 stands for the concentration that inhibits the measured activity by half. On to `COC(=O)c1cc(OC)c2c(c1-c1c(C(=O)NCCCCCCCCNc3c4c(nc5ccccc35)CCCC4)cc(OC)c3c1OCO3)OCO2`, for which the IC50 stood at 945 nM against Acetylcholinesterase and 6.5 nM on Cholinesterase. The cytotoxicity at 1 µM in data set [1] was 5.81%; in [4], < 5%. Besides, the cytotoxicity at 10 µM in [2] was 9.53%; in data set [5] it was < 5%. Moreover, the cytotoxicity at 50 µM in data set [3] came out at 51.9%; in data set [6], 38.9%.

`COC(=O)c1cc(OC)c2c(c1-c1c(C(=O)NCCCCCCNc3c4c(nc5ccccc35)CCCC4)cc(OC)c3c1OCO3)OCO2`: the IC50 against Acetylcholinesterase was found to be 616 nM; on Cholinesterase, 4.02 nM. Moreover, the cytotoxicity at 1 µM is < 5% in data set [1] and 5.26% in [4]. In addition, the cytotoxicity at 10 µM in [2] and in data set [5] was < 5% throughout. For the same molecule, the values for the cytotoxicity at 50 µM in data set [3] and in data set [6] were 34.4% and 27.3%, respectively.

As for `COC(=O)c1cc(OC)c2c(c1-c1c(C(=O)NCCCCNc3c4c(nc5ccccc35)CCCC4)cc(OC)c3c1OCO3)OCO2`, the IC50 against Acetylcholinesterase turned out to be 923 nM; at Cholinesterase it was 75.5 nM. For the same molecule, the cytotoxicity at 1 µM in [1] and in data set [4] was < 5% each time. The cytotoxicity at 10 µM in [2] was 11.9%; in [5] it was < 5%. Further, the cytotoxicity at 50 µM in [3] worked out at 19.5%; in data set [6], 19.3%.

As to `COC(=O)c1cc(OC)c2c(c1-c1c(C(=O)OC)cc(OC)c3c1OCO3)OCO2` [BIFENDATE], the IC50 against Acetylcholinesterase and on Cholinesterase was > 50000 nM throughout. Besides, the inhibition result in [7] and in data set [8] was “inactive” in each case. The cytotoxicity at 1 µM in data set [1] and in data set [4] was < 5% each time. Moreover, the cytotoxicity at 10 µM in data set [2] was 8.45%; in data set [5], < 5%. Also, the cytotoxicity at 50 µM in data set [3] came out at 11.6%; in data set [6], 7.21%. Moreover, the Activity entry is on record as “Non-Toxic” with Mus musculus [9]; “Non-Toxic” in the data set with Mus musculus [10]; 39.3 U/L in the data set on Mus musculus [11]; 105 U/L in the data set on Mus musculus [12]; 41.9 U/L in the data set on Mus musculus [13]; 110 U/L in the data set with Mus musculus [14].

On to `COc1cc(/C=C/C(=O)CC(=O)/C=C/c2ccc(O)c(OC)c2)ccc1O`, for which the inhibition entry in data set [15] was “Active”.

Regarding `COC(=O)c1cc(OC)c2c(c1-c1c(C(=O)NCCCCCCCCCCCCNc3c4c(nc5ccccc35)CCCC4)cc(OC)c3c1OCO3)OCO2`, the figures for the IC50 on Acetylcholinesterase and on Cholinesterase were 52.1 nM and 35.3 nM, respectively. Also, the cytotoxicity at 1 µM in data set [1] was 7.35%; in data set [4], < 5%. Besides, the cytotoxicity at 10 µM in [2] is 13.8%; in data set [5], < 5%. The figures for the cytotoxicity at 50 µM in data set [3] and in data set [6] were 46.1% and 7.76%, respectively.

For `COC(=O)c1cc(OC)c2c(c1-c1c(C(=O)NCCCCCCCCCCNc3c4c(nc5ccccc35)CCCC4)cc(OC)c3c1OCO3)OCO2`, the IC50 at Acetylcholinesterase was 27.3 nM; against Cholinesterase, 8.63 nM. Further, the inhibition entry in data set [16] and in data set [15] was “Active” each time. Also, the cytotoxicity at 1 µM in data set [1] was 6.71%; in data set [4] it was < 5%. The cytotoxicity at 10 µM is 10.8% in data set [2] and < 5% in data set [5]. Besides, the cytotoxicity at 50 µM was 23.1% in data set [3] and 7.84% in data set [6]. For the same molecule, the Activity entry in the data set with L02 [17] is “Non-Toxic”; in the data set with L02 [18], 14.1%; with Mus musculus [9], “Non-Toxic”; in the data set with Mus musculus [22] it was “Non-Toxic”; in the data set on Mus musculus [23], “Non-Toxic”. In addition, the “fold change (FC)” value in the data set on Mus musculus [19] and in the data set on Mus musculus [20] was 1.1 in each case. Further, the outcome in the data set on Mus musculus [21] was Active.
